The record followed here is US20070059704A1, “Detection system” (priority 2003, published 2007).

This assay relates to J3130. The assay can be described thus: Bioassay: induction of growth of drug-dependent femX null mutant J3130 by antibiotics applied on paper discs. The class given is cell-based, Streptomyces coelicolor. The note with it: for induction of growth of J3130 around the paper disc: paper disc on MMT medium spread with J3130 spores, result in words. From the text:
To see if growth of J3130 could be induced by control antibiotics known to target the cell envelope, spores of J3130 were spread on MMT medium (Kieser et al, 2000) and potential inducers were applied on paper discs to the freshly spread plates. […] None of the other antibiotics tested, including many cell wall-specific non-glycopeptide antibiotics, induced growth of J3130.
In order to perform the assay of the invention, spores of J3130 are spread on MMT medium at concentration of approximately 5×10^6/12 cm^2 plate. Test compound is applied on paper discs to a number of freshly spread plates in parallel using a different concentration of the test compound in each plate.

For the compound `N[C@H]1C(=O)N[C@@H]2Cc3ccc(c(Cl)c3)Oc3cc4cc(c3O)Oc3ccc(cc3Cl)[C@@H](O)[C@@H]3NC(=O)[C@H](NC(=O)[C@@H]4NC(=O)[C@@H](NC2=O)c2cc(O)cc(c2)Oc2cc1ccc2OS(=O)(=O)O)c1cc(Cl)c(O)c(c1)-c1c(O)cc(O)cc1[C@@H](C(=O)O)NC3=O` [A47934], the “induction of growth of J3130 around the paper disc” value (“induction” below) was “induced a halo of growth”.

Regarding `CN[C@H](CC(C)C)C(=O)N[C@H]1C(=O)N[C@@H](CC(N)=O)C(=O)N[C@H]2C(=O)N[C@H]3C(=O)N[C@H](C(=O)N[C@H](C(=O)O)c4cc(O)cc(O)c4-c4cc3ccc4O)[C@H](O[C@H]3C[C@](C)(N)[C@@H](O)[C@H](C)O3)c3ccc(c(Cl)c3)Oc3cc2cc(c3O[C@@H]2O[C@H](CO)[C@@H](O)[C@H](O)[C@H]2O[C@H]2C[C@](C)(N)[C@@H](O)[C@H](C)O2)Oc2ccc(cc2Cl)[C@H]1O` [Chloroeremomycin], the “induction” value was “induced a halo of growth”.

For the compound `CN[C@H](CC(C)C)C(=O)N[C@H]1C(=O)N[C@@H](CC(N)=O)C(=O)N[C@H]2C(=O)N[C@H]3C(=O)N[C@H](C(=O)N[C@H](C(=O)O)c4cc(O)cc(O)c4-c4cc3ccc4O)[C@H](O)c3ccc(c(Cl)c3)Oc3cc2cc(c3O[C@@H]2O[C@H](CO)[C@@H](O)[C@H](O)[C@H]2O[C@H]2C[C@](C)(N)[C@H](O)[C@H](C)O2)Oc2ccc(cc2Cl)[C@H]1O` [Vancomycin], the “induction” value is reported as “induced a halo of growth”. Besides, the “amount that gives a positive reaction in the bioassay (initial assessment of sensitivity)” value (J3130 bioassay, two-fold dilution series) came out at 80 ng.

Ristocetin: the “induction” value is listed as “induced a halo of growth”.
